How the values were obtained:
Aquaporin 7 = test: Aqp7 mRNA by qPCR after fatty acid treatment; assay type: cell-based, rat; settings: fasted plasma supplemented with FFAs, relative to 1 DPF plasma, FIG. 11
Procedure: (§1) Individual fatty acids were complexed to BSA as described by de Vries et al. (J. Lipid Res.; 38:1384-1394; 1997), which is hereby incorporated by reference. […] An equal volume of Na2CO3 (10 mM) was added and the ethanol was evaporated at 60° C. under continuous N2 flow. The fatty acid mix was added dropwise to 10% BSA. BSA/fatty acid complexes were then dialyzed four times at 4° C. during 4-6 hours in NH4HCO3 (0.1 M). Complexes were then frozen, lyophilized overnight, and resuspended in NRVM rinse media (MEM/PB12/Hepes) for a final concentration of 7 mM. NRVMs were treated with fasted serum, 1 day post-fed serum, or fasted serum+individual fatty acids. […] NRVM gene expression and mean cell diameter were determined after either 24 or 48 hours, respectively.

[1] = test system: neonatal rat cardiomyocytes; test: Fasted plasma supplemented with fatty acids, NRVM cell size; assay type: cell-based; settings: fasted plasma 2% supplemented to 1 DPF-like levels (C14 40 μM; C16 137 μM; C16:1 7.5 μM), 48 hours, FIG. 10
Procedure: as §1

[2] = test system: Neonatal rat ventricular myocytes (NRVMs); test: Inhibition of fatty acid transport blocks serum-induced NRVM hypertrophy; assay type: cell-based; settings: Coulter Counter
Procedure: Synthesis of Sulfo-N-succinimidyl oleate (SSO) was performed as described by Harmon et al. (J. Membr Biol.; 121:261-268; 1991), which is hereby incorporated by reference. Briefly, oleate (0.25 mM), HOSu(SO3)Na (0.25 mM), and dicyclohexylcarbodiimide (DCC) (0.275 mM) were dissolved in 0.5 ml of dry N,N-dimethylformamide (DMF) and stirred overnight at room temperature. Precipitated dicyclohexyturea was removed by filtration, and the filtrate cooled to 3° C. for 4 hours. Eight volumes of ethyl acetate were added, and the precipitated product was collected by filtration under nitrogen and then stored in a vacuumed desiccator over phosphorus pentoxide. Neonatal rat ventricular myocytes (NRVMs) were cultured in serum-free media (MEM/Hepes/PB12) containing insulin, transferrin, BSA, and BrdU. NRVMs were treated with serum (2%) in the presence and absence of SSO (400 μM) for 48 hours and cell size was determined using a Coulter Counter.

## CCCCCCCCCCCCCC(=O)O [C14, tetradecanoic acid]
Aquaporin 7
  Aqp7 mRNA levels: comparable levels observed with 1 DPF plasma
[1]
  changes in cell size: significant increase

## CCCCCCCC/C=C\CCCCCCCC(=O)ON1C(=O)CC(S(=O)(=O)O)C1=O (stereo not shown) [SSO, Sulfo-N-succinimidyl oleate]
[2]; SSO 400 μM, 2% 1DPF serum, 48 hours
  cell growth induced by the fed-serum: completely blocks
[2]; SSO and no serum (control)
  cell size: smaller

Reference: patent publication US9925162B2, “Methods and compositions for inducing physiological hypertrophy” (THE REGENTS OF THE UNIVERSITY OF COLORADO, priority 2009, dated 2018)
